Measurements: patent US20050197338A1, “Substituted pyrazole urea compounds for the treatment of inflammation” (priority 2003, published 2005)

Target: T1, Rat IKK-2 (Rattus norvegicus, UniProt Q9QY78)
T1 sequence (Q9QY78 1-757): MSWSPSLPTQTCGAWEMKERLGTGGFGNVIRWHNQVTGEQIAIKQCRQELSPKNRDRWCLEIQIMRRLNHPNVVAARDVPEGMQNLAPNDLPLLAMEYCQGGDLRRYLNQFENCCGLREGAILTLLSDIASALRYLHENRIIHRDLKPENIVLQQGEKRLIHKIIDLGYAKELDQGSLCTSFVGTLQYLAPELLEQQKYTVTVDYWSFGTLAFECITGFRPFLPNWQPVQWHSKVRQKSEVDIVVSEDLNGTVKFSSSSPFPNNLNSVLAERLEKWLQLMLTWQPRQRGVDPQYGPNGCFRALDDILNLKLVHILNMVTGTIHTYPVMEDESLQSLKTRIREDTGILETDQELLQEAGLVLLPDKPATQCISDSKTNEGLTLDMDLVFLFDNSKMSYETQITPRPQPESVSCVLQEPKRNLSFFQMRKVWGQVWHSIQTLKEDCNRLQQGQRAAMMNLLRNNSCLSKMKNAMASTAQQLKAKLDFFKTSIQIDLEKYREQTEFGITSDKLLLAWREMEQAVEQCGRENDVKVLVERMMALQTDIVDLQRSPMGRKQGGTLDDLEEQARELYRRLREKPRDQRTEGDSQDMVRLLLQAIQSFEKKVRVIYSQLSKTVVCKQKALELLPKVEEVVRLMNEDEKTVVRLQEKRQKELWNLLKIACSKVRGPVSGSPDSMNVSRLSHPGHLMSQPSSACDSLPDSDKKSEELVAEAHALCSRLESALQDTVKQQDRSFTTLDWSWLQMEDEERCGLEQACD
Test: Rat IKK-2 enzyme assay
Assay type: biochemical
Details: read-out: IC50 (μM) rIKK-2
Description: Kinase activity was measured using a biotinylated […] peptide (Gly-Leu-Lys-Lys-Glu-Arg-Leu-Leu-Asp-Asp-Arg-His-Asp-Ser32-Gly-Leu-Asp-Ser36-Met-Lys-Asp-Glu-Glu) (American Peptide Co.). 20 μL of the standard reaction mixture contained 5 μM biotinylated IκBα peptide, 0.1 μCi/reaction [γ-^33P] ATP (Amersham) (about 1×10^5 cpm), 1 μM ATP (Sigma), 1 mM DTT (Sigma), 2 mM MgCl2 (Sigma), 2 mM MnCl2 (Sigma), 10 mM NaF (Sigma), 25 mM Hepes (Sigma) buffer, pH. 7.6 and 20 μL enzyme solution (50 nM/rxn or 200 ng/rxn) and 10 μL inhibitor in a final volume of 50 μL. After incubation at 25° C. for 60 min, 150 μL resin was added to each well to stop the reaction. Resin was mixed and allowed to settle for 1 h and 50 μL of supernatant was removed to a Micolite 2 flat bottom plate (Dynex). 150 μL of scintillation fluid (Microscint 40) (Packard) was added to each well. Incorporation of [γ-^33P] ATP was measured using a Top-Count NXT (Packard).

SMILES	IC50 [µM]
NC(=O)Nc1cn(-c2ccc(-c3cc(F)ccc3O)c(F)c2)nc1C(N)=O [Example 263, 4-[(aminocarbonyl)amino]-1-(2,5′-difluoro-2′-hydroxy-1,1′-biphenyl-4-yl)-1H-pyrazole-3-carboxamide]	0.482
Cc1cc(O)ccc1-c1ccc(-n2cc(NC(N)=O)c(C(N)=O)n2)cc1C [Example 309, 1-(4′-hydroxy-2,2′-dimethyl-biphenyl-4-yl)-4-ureido-1H-pyrazole-3-carboxylic acid amide]	0.086
NC(=O)Nc1cn(-c2ccc(-c3ccc(O)cc3)c(F)c2)nc1C(N)=O [Example 264, 4-[(aminocarbonyl)amino]-1-(2-fluoro-4′-hydroxy-1,1′-biphenyl-4-yl)-1H-pyrazole-3-carboxamide]	0.17
NC(=O)COc1ccccc1-c1ccc(-n2cc(NC(N)=O)c(C(N)=O)n2)cc1F [Example 266, 4-[(aminocarbonyl)amino]-1-[2′-(2-amino-2-oxoethoxy)-2-fluoro-1,1′-biphenyl-4-yl]-1H-pyrazole-3-carboxamide]	0.392
NC(=O)Nc1cn(-c2ccc(S(=O)(=O)c3ccncc3)cc2)nc1C(N)=O [Example 295, 1-(3-carbamoyl-1-(4-(pyridin-4-ylsulfonyl)phenyl)-1H-pyrazol-4-yl)urea]	0.0369
NC(=O)Nc1cn(-c2ccc(-c3ccc(O)c(F)c3)c(F)c2)nc1C(N)=O [Example 265, 4-[(aminocarbonyl)amino]-1-(2,3′-difluoro-4′-hydroxy-1,1′-biphenyl-4-yl)-1H-pyrazole-3-carboxamide]	6.16
CCCOc1ccc(-n2cc(NC(N)=O)c(C(N)=O)n2)cc1C [Example 306, 4-[(aminocarbonyl)amino]-1-(3-methyl-4-propoxyphenyl)-1H-pyrazole-3-carboxamide]	0.766
NC(=O)COc1cc(F)ccc1-c1ccc(-n2cc(NC(N)=O)c(C(N)=O)n2)cc1F [Example 268, 4-[(aminocarbonyl)amino]-1-[2′-(2-amino-2-oxoethoxy)-2,4′-difluoro-1,1′-biphenyl-4-yl]-1H-pyrazole-3-carboxamide]	0.175
Cc1cc(-n2cc(NC(N)=O)c(C(N)=O)n2)ccc1S(=O)(=O)c1cccc(F)c1 [Example 312, 1-[4-(3-fluoro-benzenesulfonyl)-3-methyl-phenyl]-4-ureido-1H-pyrazole-3-carboxylic acid amide]	0.975
Cc1cc(-n2cc(NC(N)=O)c(C(N)=O)n2)ccc1F [Example 304, 4-[(aminocarbonyl)amino]-1-(4-fluoro-3-methylphenyl)-1H-pyrazole-3-carboxamide]	0.547
Cc1cc(-n2cc(NC(N)=O)c(C(N)=O)n2)ccc1-c1ccc(O)cc1 [Example 308, 1-(4′-hydroxy-2-methyl-biphenyl-4-yl)-4-ureido-1H-pyrazole-3-carboxylic acid amide]	0.099
NC(=O)Nc1cn(-c2ccc(-c3ccc(O)cc3)c(Cl)c2)nc1C(N)=O [Example 272, 4-[(aminocarbonyl)amino]-1-(2-chloro-4′-hydroxy-1,1′-biphenyl-4-yl)-1H-pyrazole-3-carboxamide]	0.167
NC(=O)Nc1cn(-c2ccc(S(=O)(=O)c3ccccc3F)c(Cl)c2)nc1C(N)=O [Example 271, 4-[(aminocarbonyl)amino]-1-{3-chloro-4-[(2-fluorophenyl)sulfonyl]phenyl}-1H-pyrazole-3-carboxamide]	0.956
Cc1cc(-n2cc(NC(N)=O)c(C(N)=O)n2)ccc1OCc1ccccc1 [Example 307, 4-[(aminocarbonyl)amino]-1-[4-(benzyloxy)-3-methylphenyl]-1H-pyrazole-3-carboxamide]	6.44
CCCc1ccc(-n2cc(NC(N)=O)c(C(N)=O)n2)cc1 [Example 305, 4-[(aminocarbonyl)amino]-1-(4-propylphenyl)-1H-pyrazole-3-carboxamide]	0.098
COc1ccc(F)cc1-c1ccc(-n2cc(NC(N)=O)c(C(N)=O)n2)cc1F [Example 269, 4-[(aminocarbonyl)amino]-1-(2,5′-difluoro-2′-methoxy-1,1′-biphenyl-4-yl)-1H-pyrazole-3-carboxamide]	0.781
NC(=O)Nc1cn(-c2cccc(O)c2)nc1C(N)=O [Example 300, 1-(3-hydroxy-phenyl)-4-ureido-1H-pyrazole-3-carboxylic acid amide]	0.378
NC(=O)Nc1cn(-c2cccc(Cl)c2F)nc1C(N)=O [Example 273, 1-(3-chloro-2-fluoro-phenyl)-4-ureido-1 h-pyrazole-3-carboxylic acid amide]	0.203
Cc1cccc(Sc2ccc(-n3cc(NC(N)=O)c(C(N)=O)n3)cc2)c1 [Example 292, 1-(1-(4-(m-tolylthio)phenyl)-3-carbamoyl-1H-pyrazol-4-yl)urea]	4.16
Cc1cc(-n2cc(NC(N)=O)c(C(N)=O)n2)ccc1-c1ccc(O)c(F)c1 [Example 310, 1-(3′-fluoro-4′-hydroxy-2-methyl-biphenyl-4-yl)-4-ureido-1H-pyrazole-3-carboxylic acid amide]	0.095
COc1ccccc1-c1ccc(-n2cc(NC(N)=O)c(C(N)=O)n2)cc1F [Example 267, 4-[(aminocarbonyl)amino]-1-(2-fluoro-2′-methoxy-1,1′-biphenyl-4-yl)-1H-pyrazole-3-carboxamide]	2.75
NC(=O)Nc1cn(-c2ccc(Br)c(O)c2)nc1C(N)=O [Example 276, 4-[(aminocarbonyl)amino]-1-(4-bromo-3-hydroxyphenyl)-1H-pyrazole-3-carboxamide]	0.194
NC(=O)Nc1cn(-c2ccc(Sc3cccc(Br)c3)cc2)nc1C(N)=O [Example 293, 1-(1-(4-(3-bromophenylthio)phenyl)-3-carbamoyl-1H-pyrazol-4-yl)urea]	4.82
Cc1cc(-n2cc(NC(N)=O)c(C(N)=O)n2)ccc1Sc1cccc(F)c1 [Example 311, 1-[4-(3-fluoro-phenylsulfanyl)-3-methyl-phenyl]-4-ureido-1H-pyrazole-3-carboxylic acid amide]	2.33

Continued, values first:

IC50 [µM]	SMILES
> 20	NC(=O)Nc1cn(-c2cccc3c2sc2ccccc23)nc1C(N)=O [Example 324, 4-[(aminocarbonyl)amino]-1-dibenzo[b,d]thien-4-yl-1H-pyrazole-3-carboxamide]
0.446	NC(=O)Nc1cn(-c2ccc(OC(F)(F)F)cc2)nc1C(N)=O [Example 328, 4-[(aminocarbonyl)amino]-1-[4-(trifluoromethoxy)phenyl]-1H-pyrazole-3-carboxamide]
0.533	NC(=O)Nc1cn(-c2cccc(F)c2)nc1C(N)=O [Example 316, 1-(3-fluoro-phenyl)-4-ureido-1H-pyrazole-3-carboxylic acid amide]
1.08	CCCOc1ccc(-n2cc(NC(N)=O)c(C(N)=O)n2)cc1 [Example 332, 4-[(aminocarbonyl)amino]-1-(4-propoxyphenyl)-1H-pyrazole-3-carboxamide]
> 20	CCc1ccccc1-n1cc(NC(N)=O)c(C(N)=O)n1 [Example 314, 1-(2-ethyl-phenyl)-4-ureido-1H-pyrazole-3-carboxylic acid amide]
2.42	CCCOc1ccc(-n2cc(NC(N)=O)c(C(N)=O)n2)cc1Cl [Example 334, 4-[(aminocarbonyl)amino]-1-(3-chloro-4-propoxyphenyl)-1H-pyrazole-3-carboxamide]
1.78	COc1ccc(-n2cc(NC(N)=O)c(C(N)=O)n2)cc1OC [Example 330, 4-[(aminocarbonyl)amino]-1-(3,4-dimethoxyphenyl)-1H-pyrazole-3-carboxamide]
8.52	Cc1ccccc1-n1cc(NC(N)=O)c(C(N)=O)n1 [Example 318, 1-o-tolyl-4-ureido-1H-pyrazole-3-carboxylic acid amide]
0.632	Cc1cccc(-n2cc(NC(N)=O)c(C(N)=O)n2)c1 [Example 315, 1-m-tolyl-4-ureido-1H-pyrazole-3-carboxylic acid amide]
0.365	Cc1ccc(-n2cc(NC(N)=O)c(C(N)=O)n2)cc1F [Example 326, 4-[(aminocarbonyl)amino]-1-(3-fluoro-4-methylphenyl)-1H-pyrazole-3-carboxamide]
1.46	NC(=O)Nc1cn(-c2cccc(C(F)(F)F)c2)nc1C(N)=O [Example 317, 1-(3-trifluoromethyl-phenyl)-4-ureido-1H-pyrazole-3-carboxylic acid amide]
